Columns and labels:
major crops = assay: Pre-emergence test experiment (crops); format: in vivo; parameters: key: 9: completely dead; 8: growth control rate is greater than or equal to 90% and less than 100%; 7: growth control rate is greater than or equal to 80% and less than 90%; 6: growth control rate is greater than or equal to 70% and less than 80%; growth control rate is greater than or equal to 50% and less than 70%; 4: growth control rate is greater than or equal to 30% and less than 50%; growth control rate is greater than or equal to 20% and less than 30%; growth control rate is greater than or equal to 10% and less than 20%; growth control rate is less than 10%; 0: no effect; conditions: 30 g a.i./ha
[1] = system: monocotyledonous and dicotyledonous weeds; assay: Pre-emergence test experiment (weeds); format: in vivo; parameters: key: 9: completely dead; 8: growth control rate is greater than or equal to 90% and less than 100%; 7: growth control rate is greater than or equal to 80% and less than 90%; 6: growth control rate is greater than or equal to 70% and less than 80%; growth control rate is greater than or equal to 50% and less than 70%; 4: growth control rate is greater than or equal to 30% and less than 50%; growth control rate is greater than or equal to 20% and less than 30%; growth control rate is greater than or equal to 10% and less than 20%; growth control rate is less than 10%; 0: no effect; conditions: 30 g a.i./ha

| SMILES | Pre-emergence plant damage level (growth control rate) on Corn (major crops) | Pre-emergence plant damage level (growth control rate) on Cotton (major crops) | Pre-emergence plant damage level (growth control rate) on Soybean (major crops) | Pre-emergence activity level (growth control rate) on Amaranthus retroflexus [1] | Pre-emergence activity level (growth control rate) on Descurainia sophia [1] | Pre-emergence activity level (growth control rate) on Digitaria sanguinalis [1] | Pre-emergence activity level (growth control rate) on Setaria viridis [1] | Pre-emergence activity level (growth control rate) on Solanum nigrum [1] | Pre-emergence activity level (growth control rate) on Veronica [1] |
| --- | --- | --- | --- | --- | --- | --- | --- | --- | --- |
| CCc1ccc(-n2cnc(C(F)(F)F)n2)nc1Oc1cccc(C(C)(F)F)c1 [Compound 69] | 0 | 0 | 0 | 9 | 9 | 9 | 9 | 9 | 9 |
| COCc1ccc(-n2cnc(C(F)(F)C(F)(F)F)n2)nc1Oc1cccc(OC(F)(F)F)c1 [Compound 77] | 0 | 0 | 0 | 9 | 9 | 8 (growth control rate is greater than or equal to 90% and less than 100%) | 8 (growth control rate is greater than or equal to 90% and less than 100%) | 7 (growth control rate is greater than or equal to 80% and less than 90%) | 9 |
| COCc1ccc(-n2cnc(C(F)(F)C(F)(F)F)n2)nc1Oc1cccc(C(F)(F)F)c1 [Compound 141] | 0 | 0 | 0 | 8 (growth control rate is greater than or equal to 90% and less than 100%) | 9 | 9 | 8 (growth control rate is greater than or equal to 90% and less than 100%) | 9 | 9 |
| CCc1ccc(-n2cnc(C(F)(F)F)n2)nc1Oc1cccc(C(F)F)c1 [Compound 137] | 0 | 0 | 0 | 9 | 9 | 8 (growth control rate is greater than or equal to 90% and less than 100%) | 9 | 9 | 9 |
| Cc1ccc(-n2cnc(C(F)(F)F)n2)nc1Oc1cccc(F)c1 [Compound 39] | 0 | 0 | 0 | 9 | – | – | – | – | 9 |
| Cc1ccc(-n2cnc(C(F)(F)F)n2)nc1Oc1ccc(F)c(C(F)(F)F)c1 [Compound 10] | 0 | 0 | 0 | 9 | 9 | 9 | 9 | 9 | 9 |
| FC(F)(F)c1cccc(Oc2nc(-n3cnc(C(F)(F)F)n3)ccc2Cl)c1 [Compound 7] | 0 | 0 | 0 | 9 | 9 | 8 (growth control rate is greater than or equal to 90% and less than 100%) | 9 | – | 9 |
| CCc1ccc(-n2cnc(C(F)(F)F)n2)nc1Oc1cccc(OC(F)F)c1 [Compound 133] | 0 | 0 | 0 | 9 | 9 | 9 | 9 | 9 | 9 |
| Cc1ccc(-n2cnc(C(F)(F)F)n2)nc1Oc1cccc(OC(F)(F)F)c1 [Compound 9] | 0 | 0 | 0 | 9 | 9 | 9 | 9 | 9 | 9 |
| CCc1ccc(-n2cnc(C(F)(F)F)n2)nc1Oc1ccc(F)c(OC(F)(F)F)c1 [Compound 136] | 0 | 0 | 0 | 9 | 9 | 9 | 9 | 9 | 9 |
| CCc1ccc(-n2cnc(C(F)(F)C(F)(F)F)n2)nc1Oc1cccc(C(F)(F)F)c1 [Compound 19] | 0 | 0 | 0 | 9 | 9 | 8 (growth control rate is greater than or equal to 90% and less than 100%) | 8 (growth control rate is greater than or equal to 90% and less than 100%) | 8 (growth control rate is greater than or equal to 90% and less than 100%) | 9 |
| Cc1ccc(-n2cnc(C(C)(F)F)n2)nc1Oc1cccc(C(F)(F)F)c1 [Compound 13] | 0 | 0 | 0 | 9 | 9 | 8 (growth control rate is greater than or equal to 90% and less than 100%) | 7 (growth control rate is greater than or equal to 80% and less than 90%) | – | 9 |
| Cc1ccc(-n2cnc(C(F)(F)F)n2)nc1Oc1cccc(C(F)F)c1 [Compound 12] | 0 | 0 | 0 | 9 | 9 | 9 | 9 | 9 | 9 |
| COCc1cc(Oc2cccc(C(F)(F)F)c2)nc(-n2cnc(C(F)(F)F)n2)c1 [Compound 68] | 0 | 0 | 0 | 9 | 8 (growth control rate is greater than or equal to 90% and less than 100%) | 7 (growth control rate is greater than or equal to 80% and less than 90%) | 8 (growth control rate is greater than or equal to 90% and less than 100%) | 7 (growth control rate is greater than or equal to 80% and less than 90%) | 8 (growth control rate is greater than or equal to 90% and less than 100%) |
| COCc1ccc(-n2cnc(C(F)(F)F)n2)nc1Oc1cccc(Cl)c1 [Compound 139] | 0 | 0 | 0 | 9 | 9 | 9 | 9 | 9 | 9 |

— patent US20260305610A1, “TRIAZOLE COMPOUND, AND PREPARATION METHOD THEREFOR, HERBICIDAL COMPOSITION AND USE THEREOF” (QINGDAO KINGAGROOT CHEMICAL COMPOUND CO., LTD., priority 2023, published 2026)
